# In patent US12679843B2, “Pyrrolopyrimidine amines as complement inhibitors” (BioCryst Pharmaceuticals, Inc., priority 2020, dated 2026):
# Molecular target: Factor D (Homo sapiens, UniProt P00746)
# Test: Factor D esterolytic assay (Z-Lys-SBzl thioester substrate, DTNB, 405 nm)
# Format: biochemical
# Settings: substrate Z-Lys-SBzl 1.29 mM, 100 mM HEPES, 500 mM NaCl, pH 7.5, 10% DMSO, tested a minimum of three times
# Outline: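 Human Factor D hydrolysis of Z-Lys-SBzl (1.29 mM) monitored at 405 nm via DTNB thiol detection for 600 s, 690 nm background subtracted. Buffer 100 mM HEPES, 500 mM NaCl, pH 7.5, 10% DMSO; substrate added immediately or after room-temperature preincubation. IC50 from percent inhibition of rate, at least three tests.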
# Sequence of Factor D (P00746 26-253): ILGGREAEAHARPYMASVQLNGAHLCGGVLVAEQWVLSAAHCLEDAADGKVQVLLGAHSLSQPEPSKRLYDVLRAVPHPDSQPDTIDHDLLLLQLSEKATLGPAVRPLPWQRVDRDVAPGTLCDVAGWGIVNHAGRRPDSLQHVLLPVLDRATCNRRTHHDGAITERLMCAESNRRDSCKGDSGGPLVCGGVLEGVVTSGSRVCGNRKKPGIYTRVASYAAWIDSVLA
row,Structure (SMILES),IC50 [nM]
1,"NC(=O)c1cn(CC(=O)N2C[C@H](F)C[C@H]2C(=O)NCc2cccc(Cl)c2F)c2ncnc(N)c12 [Compound 140a, 4-amino-7-(2-((2S,4R)-2-((3-chloro-2-fluorobenzyl)carbamoyl)-4-fluoropyrrolidin-1-yl)-2-oxoethyl)-7H-pyrrolo[2,3-d]pyrimidine-5-carboxamide]",> 1000
2,"N#C[C@H]1C[C@@H](C(=O)Nc2cccc(Br)n2)N(C(=O)Cn2c3ccc(C(F)(F)F)cc3c3c(N)ncnc32)C1 [Compound 177d, (2S,4S)-1-(2-(4-amino-6-(trifluoromethyl)-9H-pyrimido[4,5-b]indol-9-yl)acetyl)-N-(6-bromopyridin-2-yl)-4-cyanopyrrolidine-2-carboxamide]",100 to 1000
3,"Nc1ncnc2c1cnn2CC(=O)N1CCC[C@H]1C(=O)NCc1cccc(Cl)c1F [Compound 78a, (S)-1-(2-(4-amino-1H-pyrazolo[3,4-d]pyrimidin-1-yl)acetyl)-N-(3-chloro-2-fluorobenzyl)pyrrolidine-2-carboxamide]",100 to 1000
4,"Nc1ncnc2c1c(I)cn2CC(=O)N1C[C@H](F)C[C@H]1C(=O)NCc1cccc(Cl)c1F [Compound 148d, (2S,4R)-1-(2-(4-amino-5-iodo-7H-pyrrolo[2,3-d]pyrimidin-7-yl)acetyl)-N-(3-chloro-2-fluorobenzyl)-4-fluoropyrrolidine-2-carboxamide]",100 to 1000
5,"CC1(C)C[C@@H](C(=O)Nc2cccc(Br)n2)N(C(=O)Cn2c3ccc(C(F)(F)F)cc3c3c(N)ncnc32)C1 [Compound 210d, (S)-1-(2-(4-amino-6-(trifluoromethyl)-9H-pyrimido[4,5-b]indol-9-yl)acetyl)-N-(6-bromopyridin-2-yl)-4,4-dimethylpyrrolidine-2-carboxamide]",100 to 1000
6,"Nc1ncnc2c1ncn2CC(=O)N1[C@@H]2C[C@@H]2C[C@H]1C(=O)N[C@@H]1C[C@H]1c1ccccc1Cl [Compound 98b, (1R,3S,5R)-2-(2-(6-amino-9H-purin-9-yl)acetyl)-N-((1R,2S)-2-(2-chlorophenyl)cyclopropyl)-2-azabicyclo[3.1.0]hexane-3-carboxamide]",100 to 1000
7,"Cc1nc(N)c2cnn(CC(=O)N3C[C@H](F)C[C@H]3C(=O)NCc3cccc(Cl)c3F)c2n1 [Compound 142d, (2S,4R)-1-(2-(4-amino-6-methyl-1H-pyrazolo[3,4-d]pyrimidin-1-yl)acetyl)-N-(3-chloro-2-fluorobenzyl)-4-fluoropyrrolidine-2-carboxamide]",> 1000
8,"Nc1ncnc2c1c(-c1ccccc1)cn2CC(=O)N1C[C@H](F)C[C@H]1C(=O)NCc1cccc(Cl)c1F [Compound 135a, (2S,4R)-1-(2-(4-amino-5-phenyl-7H-pyrrolo[2,3-d]pyrimidin-7-yl)acetyl)-N-(3-chloro-2-fluorobenzyl)-4-fluoropyrrolidine-2-carboxamide]",100 to 1000
9,"Nc1ncnc2c1c1cc(CCC(=O)O)ccc1n2CC(=O)N1[C@@H]2C[C@@H]2C[C@H]1C(=O)Nc1cccc(Br)n1 [Compound 165a, 3-(4-amino-9-(2-((1R,3S,5R)-3-((6-bromopyridin-2-yl)carbamoyl)-2-azabicyclo[3.1.0]hexan-2-yl)-2-oxoethyl)-9H-pyrimido[4,5-b]indol-6-yl)propanoic acid]",< 100
10,"Cc1ccc2c(c1)c1c(N)ncnc1n2CC(=O)N1[C@H](C(=O)Nc2nc(Br)ccc2C)C[C@@]2(C)C[C@@H]12 [Compound 10b, (1R,3S,5R)-2-(2-(4-amino-6-methyl-9H-pyrimido[4,5-b]indol-9-yl)acetyl)-N-(6-bromo-3-methylpyridin-2-yl)-5-methyl-2-azabicyclo[3.1.0]hexane-3-carboxamide]",< 100
11,"Cc1ccc2c(c1)c1c(N)ncnc1n2CC(=O)N1C[C@H](F)C[C@H]1C(=O)NCc1cccc(Cl)c1F [Compound 7b, (2S,4R)-1-(2-(4-amino-6-methyl-9H-pyrimido[4,5-b]indol-9-yl)acetyl)-N-(3-chloro-2-fluorobenzyl)-4-fluoropyrrolidine-2-carboxamide]",< 100
12,"COC(=O)c1ccc2c3c(N)ncnc3n(CC(=O)N3[C@@H]4C[C@@H]4C[C@H]3C(=O)Nc3cccc(Br)n3)c2c1 [Compound 41f, methyl 4-amino-9-(2-((1R,3S,5R)-3-((6-bromopyridin-2-yl)carbamoyl)-2-azabicyclo[3.1.0]hexan-2-yl)-2-oxoethyl)-9H-pyrimido[4,5-b]indole-7-carboxylate]",< 100
13,"C[C@@]12C[C@@H](C(=O)NCc3cccc(Cl)c3F)N(C(=O)Cn3cnc4c(N)ncnc43)[C@@H]1C2 [Compound 67c, (1R,3S,5R)-2-(2-(6-amino-9H-purin-9-yl)acetyl)-N-(3-chloro-2-fluorobenzyl)-5-methyl-2-azabicyclo[3.1.0]hexane-3-carboxamide]",100 to 1000

# The remaining lines, values ahead:
row,IC50 [nM],Structure (SMILES)
1,< 100,"COc1cc(Br)nc(NC(=O)[C@@H]2C[C@H]3C[C@H]3N2C(=O)Cn2c3ncnc(N)c3c3cc(C(F)(F)F)cc(C)c32)c1 [Compound 344c, (1R,3S,5R)-2-(2-(4-amino-8-methyl-6-(trifluoromethyl)-9H-pyrimido[4,5-b]indol-9-yl)acetyl)-N-(6-bromo-4-methoxypyridin-2-yl)-2-azabicyclo[3.1.0]hexane-3-carboxamide]"
2,< 100,"C[C@H]1C[C@@H](C(=O)Nc2cccc(Br)n2)N(C(=O)Cn2c3ccc(C(F)(F)F)cc3c3c(N)ncnc32)C1 [Compound 208d, (2S,4S)-1-(2-(4-amino-6-(trifluoromethyl)-9H-pyrimido[4,5-b]indol-9-yl)acetyl)-N-(6-bromopyridin-2-yl)-4-methylpyrrolidine-2-carboxamide]"
3,< 100,"C[C@@]12C[C@@H](C(=O)Nc3cccc(Br)n3)N(C(=O)Cn3ccc4c(N)ncnc43)[C@@H]1C2 [Compound 73a, (1R,3S,5R)-2-(2-(4-amino-7H-pyrrolo[2,3-d]pyrimidin-7-yl)acetyl)-N-(6-bromopyridin-2-yl)-5-methyl-2-azabicyclo[3.1.0]hexane-3-carboxamide]"
4,< 100,"Nc1ncnc2c1ncn2CC(=O)N1[C@@H]2C[C@@H]2C[C@H]1C(=O)NCc1cccc(Cl)c1F [Compound 91a, (1R,3S,5R)-2-(2-(6-amino-9H-purin-9-yl)acetyl)-N-(3-chloro-2-fluorobenzyl)-2-azabicyclo[3.1.0]hexane-3-carboxamide]"
5,< 100,"C[C@@]12C[C@@H](C(=O)Nc3cccc(Br)n3)N(C(=O)Cn3c4ccc(Br)nc4c4c(N)ncnc43)[C@@H]1C2 [Compound 292a, (1R,3S,5R)-2-(2-(4-amino-6-bromo-9H-pyrido[2′,3′:4,5]pyrrolo[2,3-d]pyrimidin-9-yl)acetyl)-N-(6-bromopyridin-2-yl)-5-methyl-2-azabicyclo[3.1.0]hexane-3-carboxamide]"
6,< 100,"C[C@@]1(F)C[C@@H](C(=O)Nc2cccc(Br)n2)N(C(=O)Cn2c3ccc(C(F)(F)F)cc3c3c(N)ncnc32)C1 [Compound 207b, (2S,4R)-1-(2-(4-amino-6-(trifluoromethyl)-9H-pyrimido[4,5-b]indol-9-yl)acetyl)-N-(6-bromopyridin-2-yl)-4-fluoro-4-methylpyrrolidine-2-carboxamide]"
7,< 100,"Cc1cc(C(F)(F)F)cc2c3c(N)ncnc3n(CC(=O)N3[C@@H]4C[C@@H]4C[C@H]3C(=O)Nc3cccc(C(F)(F)F)n3)c12 [Compound 349c, (1R,3S,5R)-2-(2-(4-amino-8-methyl-6-(trifluoromethyl)-9H-pyrimido[4,5-b]indol-9-yl)acetyl)-N-(6-(trifluoromethyl)pyridin-2-yl)-2-azabicyclo[3.1.0]hexane-3-carboxamide]"
